Laboratory results published in ChEMBL document CHEMBL1201862, “PubChem BioAssay data set” (2004).
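A five-concentration, 48-hour dose response in 96-well plates underlies each endpoint, interpolated linearly between surrounding concentrations. The concentration for 50% growth inhibition is given as GI50.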 Activity calls are given as the source filed them. Cut-off read from the data, not from the text of the source: active = GI50 up to about 1.1 µM and inactive = higher.

Columns and labels:
Experiment in all cases: NCI anticancer screen, dose series, 48 h
UO-31 = system: UO-31
CAKI-1 = system: CAKI-1
TK-10 = system: TK-10
RXF 393 = system: RXF 393
M14 = system: M14
U-251 = system: U-251
HCC 2998 = system: HCC 2998
SF-268 = system: SF-268
SK-MEL-5 = system: SK-MEL-5
OVCAR-8 = system: OVCAR-8
NCI-H460 = system: NCI-H460
SK-MEL-2 = system: SK-MEL-2
SN12C = system: SN12C
A498 = system: A498
SF-539 = system: SF-539
SW-620 = system: SW-620
SF-295 = system: SF-295
UACC-62 = system: UACC-62
HCT-116 = system: HCT-116
NCI-H226 = system: NCI-H226
PC-3 = system: PC-3
KM12 = system: KM12
CCRF-CEM = system: CCRF-CEM
NCI-H23 = system: NCI-H23
MDA-MB-231 = system: MDA-MB-231
SR = system: SR
RPMI-8226 = system: RPMI-8226
HCT-15 = system: HCT-15
OVCAR-3 = system: OVCAR-3
SK-OV-3 = system: SK-OV-3
OVCAR-5 = system: OVCAR-5
OVCAR-4 = system: OVCAR-4
IGROV-1 = system: IGROV-1
SNB-19 = system: SNB-19
UACC-257 = system: UACC-257
K562 = system: K562
HOP-62 = system: HOP-62
MCF7 = system: MCF7
MDA-MB-435 = system: MDA-MB-435
COLO 205 = system: COLO 205
NCI/ADR-RES = system: NCI/ADR-RES
LOX IMVI = system: LOX IMVI
T47D = system: T47D
786-0 = system: 786-0
BT-549 = system: BT-549
MDA-N = system: MDA-N
Hs-578T = system: Hs-578T
Malme-3M = system: Malme-3M
A549 = system: A549
EKVX = system: EKVX
HT-29 = system: HT-29
SK-MEL-28 = system: SK-MEL-28
MOLT-4 = system: MOLT-4
SNB-75 = system: SNB-75
HL-60 = system: HL-60
ACHN = system: ACHN
DU-145 = system: DU-145
NCI-H522 = system: NCI-H522

CCOC(=O)c1ccc(C(=O)/C(C(=O)OC(C)(C)C)=C2\CCCN2C)n1C
GI50 (UO-31): 90.4 µM (inactive)
GI50 (CAKI-1): > 100 µM (inactive)
GI50 (TK-10): > 100 µM (inactive)
GI50 (RXF 393): > 100 µM (inactive)
GI50 (M14): 57.8 µM (inactive)
GI50 (U-251): > 100 µM (inactive)
GI50 (HCC 2998): > 100 µM (inactive)
GI50 (SF-268): > 100 µM (inactive)
GI50 (SK-MEL-5): 21.3 µM (inactive)
GI50 (OVCAR-8): 80.4 µM (inactive)
GI50 (NCI-H460): 94.6 µM (inactive)
GI50 (SK-MEL-2): > 100 µM (inactive)
GI50 (SN12C): > 100 µM (inactive)
GI50 (A498): 77.1 µM (inactive)
GI50 (SF-539): > 100 µM (inactive)
GI50 (SW-620): > 100 µM (inactive)
GI50 (SF-295): 28.7 µM (inactive)
GI50 (UACC-62): 44.2 µM (inactive)
GI50 (HCT-116): 48.5 µM (inactive)
GI50 (NCI-H226): > 100 µM (inactive)
GI50 (PC-3): 73.1 µM (inactive)
GI50 (KM12): 55.3 µM (inactive)
GI50 (CCRF-CEM): 72.9 µM (inactive)
GI50 (NCI-H23): 73.3 µM (inactive)
GI50 (MDA-MB-231): 80 µM (inactive)
GI50 (SR): 31.6 µM (inactive)
GI50 (RPMI-8226): 69.7 µM (inactive)
GI50 (HCT-15): 95.1 µM
GI50 (OVCAR-3): 37.8 µM (inactive)
GI50 (SK-OV-3): 16.6 µM (inactive)
GI50 (OVCAR-5): > 100 µM (inactive)
GI50 (OVCAR-4): 46.6 µM (inactive)
GI50 (IGROV-1): > 100 µM (inactive)
GI50 (SNB-19): > 100 µM (inactive)
GI50 (UACC-257): 54 µM (inactive)
GI50 (K562): 42.1 µM (inactive)
GI50 (HOP-62): 95.3 µM (inactive)
GI50 (MCF7): 55.8 µM (inactive)
GI50 (MDA-MB-435): 69.7 µM (inactive)
GI50 (COLO 205): 96.8 µM (inactive)
GI50 (NCI/ADR-RES): 34.6 µM (inactive)
GI50 (LOX IMVI): 87.3 µM (inactive)
GI50 (T47D): 29.2 µM (inactive)
GI50 (786-0): > 100 µM (inactive)
GI50 (BT-549): 39.7 µM (inactive)
GI50 (MDA-N): 58.3 µM (inactive)
GI50 (Hs-578T): > 100 µM (inactive)
GI50 (Malme-3M): > 100 µM (inactive)
GI50 (A549): 61.2 µM (inactive)
GI50 (EKVX): 33.4 µM (inactive)
GI50 (HT-29): 45.2 µM (inactive)
GI50 (SK-MEL-28): > 100 µM (inactive)
GI50 (MOLT-4): 33.8 µM (inactive)
GI50 (SNB-75): 15.9 µM (inactive)
GI50 (HL-60): 27.4 µM (inactive)
GI50 (ACHN): 73.5 µM (inactive)
GI50 (DU-145): > 100 µM (inactive)

CN(C)C1=Nc2ccccc2C(=S)N2CSCC12 (configuration not stated)
GI50 (UO-31): > 100 µM (inactive)
GI50 (CAKI-1): 20.9 µM (inactive)
GI50 (TK-10): > 100 µM (inactive)
GI50 (RXF 393): 44.7 µM (inactive)
GI50 (M14): 66.2 µM (inactive)
GI50 (U-251): 35.6 µM (inactive)
GI50 (HCC 2998): > 100 µM (inactive)
GI50 (SF-268): > 100 µM (inactive)
GI50 (SK-MEL-5): > 100 µM (inactive)
GI50 (OVCAR-8): > 100 µM (inactive)
GI50 (NCI-H460): 37.8 µM (inactive)
GI50 (SK-MEL-2): > 100 µM (inactive)
GI50 (SN12C): 84.5 µM (inactive)
GI50 (A498): > 100 µM (inactive)
GI50 (SW-620): 34.8 µM (inactive)
GI50 (SF-295): > 100 µM (inactive)
GI50 (UACC-62): 75.5 µM (inactive)
GI50 (HCT-116): > 100 µM (inactive)
GI50 (NCI-H226): > 100 µM (inactive)
GI50 (PC-3): > 100 µM (inactive)
GI50 (KM12): > 100 µM (inactive)
GI50 (CCRF-CEM): 16.4 µM (inactive)
GI50 (MDA-MB-231): 44.3 µM (inactive)
GI50 (SR): 17.9 µM (inactive)
GI50 (RPMI-8226): 51.4 µM (inactive)
GI50 (HCT-15): 34 µM
GI50 (OVCAR-3): 32.7 µM (inactive)
GI50 (SK-OV-3): > 100 µM (inactive)
GI50 (OVCAR-5): > 100 µM (inactive)
GI50 (OVCAR-4): > 100 µM (inactive)
GI50 (IGROV-1): 19.1 µM (inactive)
GI50 (SNB-19): > 100 µM (inactive)
GI50 (UACC-257): > 100 µM (inactive)
GI50 (K562): 12.8 µM (inactive)
GI50 (HOP-62): > 100 µM (inactive)
GI50 (MCF7): 47.3 µM (inactive)
GI50 (MDA-MB-435): > 100 µM (inactive)
GI50 (COLO 205): 22.3 µM (inactive)
GI50 (NCI/ADR-RES): 73.8 µM (inactive)
GI50 (LOX IMVI): 43.3 µM (inactive)
GI50 (T47D): 89.5 µM (inactive)
GI50 (786-0): 25.9 µM (inactive)
GI50 (BT-549): 78.5 µM (inactive)
GI50 (MDA-N): 39.2 µM (inactive)
GI50 (Hs-578T): 77.3 µM (inactive)
GI50 (Malme-3M): 32.7 µM (inactive)
GI50 (A549): > 100 µM (inactive)
GI50 (EKVX): 41.1 µM (inactive)
GI50 (HT-29): 75.9 µM (inactive)
GI50 (SK-MEL-28): 81.1 µM (inactive)
GI50 (MOLT-4): 22.4 µM (inactive)
GI50 (SNB-75): 57.3 µM (inactive)
GI50 (ACHN): > 100 µM (inactive)
GI50 (NCI-H522): 14.6 µM (inactive)
GI50 (DU-145): > 100 µM (inactive)
